# Experiments:
# [1] = tested on: choroidal neovascularisation; assay: Laser-induced choroidal neovascularisation rat model, fluorescein angiography leakage score; format: in vivo, Brown Norway pigmented rats; design: key to Mean score of fluorescein leakage: 0 = no leakage, 1 = slight, 2 = moderate, 3 = strongly stained
# Experimental: Forty-eight (48) Brown Norway pigmented rats were divided into six (6) groups of eight (8) animals. Choroidal neovascularization was induced using a 532 nm argon laser photocoagulator (six (6) 75 μm-sized spots at 150 mW for 0.1 sec duration) in the right eyes on Day 0. The test item was administered three times a day by instillation or twice a day by oral administration from Day 0 (DO) just after ChNV induction to Day 21 (last day of the study). Control item (vehicle) was instilled three times a day and the reference item (Dexamethasone in olive oil) was administered by daily oral administration from the Day 0 just after induction of neovascularization to Day 21. Fundus neovessels were evaluated in the right eyes on Days 14 and 21 using Heidelberg's Retinal Angiograph (HRA). Lesion size was determined on choroid flatmounts labelled with Isolectin-B4 at the end of the in vivo period.
# On Day 0, animals were anesthetized by an intramuscular injection of a mix of xylazine (5 mg/kg) and ketamine (25 mg/kg). Pupils from the right eyes were dilated by instillation of one drop of 0.5% tropicamide. Then, six (6) choroidal burns (75 μm spot size) were done through a slit-lamp, with a contact lens, around the optic disc, between the main vessel branches using an argon laser photocoagulator (532 nm; 150 mW; 0.1 sec duration). Production of a bubble at the time of laser treatment confirmed the rupture of Bruch's membrane.
# Test, control, or reference items were administered topically by instillation (10 μL each) or by oral route (1 mL/kg) from Day 0 (just after the induction) to Day 21 (end of the study). Test and control items were administered three times a day (for instillation) and two times a day (for oral administration). Reference item was administered once a day by oral route.
# Fluorescein angiography was performed on Days 14 and 21 using an HRA (Heidelberg's Retinal Angiograph). After anaesthesia (same mix used for ChNV induction) and pupillary dilation, 250 μL/100 g (body weight) of a 10% sodium fluorescein was injected subcutaneously using a 26-G insulin syringe, and fluorescein photos were recorded 10 minutes after dye injection.
# The leakage of fluorescein on the angiograms were evaluated by two examiners in a masked fashion and graded as follows: • Score 0, no leakage; • Score 1, slightly stained; • Score 2, moderately stained; • Score 3, strongly stained.
# Statistical analysis, using Mann-Whitney U test or appropriate statistical model, were performed on the scoring of lesions visualized by HRA from each animal and on the scoring of the flat mounted preparations.
# The grading of fluorescein angiographies (FA) was based on the fluorescence intensity for each lesion. For each treatment group, results were expressed as the group mean score per time-point. Table 1 summarises the evaluation of FA recorded at 10 min on Days 14 and 21 (n=8 animals per group, right eyes). A statistical analysis was performed on the median of the individual intensity scores, using a Kruskall-Wallis test followed by a Mann & Whitney U multiple comparison test, which was used to compare each test, control or reference group.
# [2] = tested on: bFGF induced corneal vascularisation; assay: bFGF induced corneal vascularisation (pellet in corneal pocket), area of neovascularisation; format: in vivo, C57BL/6 mice
# Experimental: The area of the neovascularisation can be measured using the formula: Area=0.2·VL·CH·π wherein vessel length (VL) and continuous circumferential zone (in clock hours=CH) are measured as defined in FIG. 1. Treatment with Laquinimod of VEGF Induced Corneal Vascularisation
# Hydron pellets for induction of vascularisation were prepared from stimulant (bFGF) and binding agent (sucralfate).
# 47 CR female C57BL/6 mice aged 6 to 8 weeks were prepared for surgery by anesthetising with 90 mg/kg of pentobarbital, ip. Corneal vascularisation was induced by placement of a pellet in a corneal pocket cut in one eye. Signs for ocular irritation or infection were carefully monitored.
# Dosages of laquinimod in DI (deionised) water, vehicle (DDW=double distilled water), and avastin (positive control) were applied directly to the eye containing the pellet. Vascularisation was measured on day 6.
# [3] = Instillations 0.2% 3×/day, Day 14
# [4] = Instillations 0.2% 3×/day, Day 21
# [5] = Instillations 1% 3×/day, Day 14
# [6] = Instillations 1% 3×/day, Day 21
# [7] = Instillations 5% 3×/day, Day 14
# [8] = Instillations 5% 3×/day, Day 21
# [9] = group 5: 50 μg/animal topical bid ×5, measured day 6
structure (smiles),measurement,setting,value
CCN(C(=O)c1c(O)c2c(Cl)cccc2n(C)c1=O)c1ccccc1 [laquinimod],% of reduction vs respective vehicle,[1]; [3],0%
same,Mean score of fluorescein leakage,[1]; [3],0.7
same,% of reduction vs respective vehicle,[1]; [4],18%
same,Mean score of fluorescein leakage,[1]; [4],0.9
same,% of reduction vs respective vehicle,[1]; [5],<0%
same,Mean score of fluorescein leakage,[1]; [5],1.1
same,% of reduction vs respective vehicle,[1]; [6],<0%
same,Mean score of fluorescein leakage,[1]; [6],1.2
same,% of reduction vs respective vehicle,[1]; [7],0%
same,Mean score of fluorescein leakage,[1]; [7],0.7
same,% of reduction vs respective vehicle,[1]; [8],63%
same,Mean score of fluorescein leakage,[1]; [8],0.4
same,% of reduction vs respective vehicle,"[1]; Per os 1 mg/kg 2×/day, Day 14",<0%
same,Mean score of fluorescein leakage,"[1]; Per os 1 mg/kg 2×/day, Day 14",0.8
same,% of reduction vs respective vehicle,"[1]; Per os 1 mg/kg 2×/day, Day 21",18%
same,Mean score of fluorescein leakage,"[1]; Per os 1 mg/kg 2×/day, Day 21",0.9
same,vascular leakage,[1]; daily topical administration,effectively reduces vascular leakage
same,Inhibition of corneal vascularisation induced by bFGF,"[2]; 0.5 mg/kg bid, group 4",11%
same,Inhibition of corneal vascularisation induced by bFGF,"[2]; 2.5 mg/kg bid, group 5",35%
same,Inhibition of corneal vascularisation induced by bFGF,"[2]; 2.5 mg/kg qid, group 7",56%
same,Area of vasc.,[2]; [9],2.30 ± 0.23
same,Area percent of positive control,[2]; [9],65%
same,Area of vasc.,"[2]; group 7: 50 μg/animal topical qid ×5, measured day 6",1.56 ± 0.15

# — US12208091B2, “Compounds for treatment of eye diseases associated with excessive vascularisation” (Active Biotech AB, priority 2019, dated 2025)
